Measured values taken from PubChem BioAssay AID256 (DTP/NCI, 2004).
Values joined by “and” are separate entries in the source; they are usually repeats but may differ in a detail not shown here. Equal entries are not always repeated. Toxic doses and inconclusive results are not listed.

Tested on: CD2F1 mice, L1210 leukemia ip, survival T/C
Assay: NCI In Vivo Anticancer Drug Screen. Data for tumor model L1210 Leukemia (intraperitoneal) in CD2F1 (CDF1) mice
Conditions: higher = longer survival
In short: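 Activity against a transplanted murine tumor was judged by comparing the compound group with a vehicle group. The outcome in the treated animals was divided by that in the controls.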

[1] = endpoint: mean survival time, dose: 100.0 mg/kg/injection, schedule: Q01DX001 (ip), vehicle: saline
[2] = endpoint: mean survival time, dose: 200.0 mg/kg/injection, schedule: Q01DX001 (ip), vehicle: saline
[3] = endpoint: mean survival time, dose: 100.0 mg/kg/injection, schedule: Q01DX009 (ip), vehicle: saline with Tween-80
[4] = endpoint: mean survival time, dose: 200.0 mg/kg/injection, schedule: Q01DX009 (ip), vehicle: saline with Tween-80
[5] = endpoint: mean survival time, dose: 400.0 mg/kg/injection, schedule: Q01DX009 (ip), vehicle: saline with Tween-80
[6] = endpoint: mean survival time, dose: 50.0 mg/kg/injection, schedule: Q01DX009 (ip), vehicle: saline with Tween-80

Compound: O=C(Nc1c(Oc2ccc(Cl)cc2Cl)ccc(Cl)c1S(=O)(=O)O)Nc1c(Oc2ccc(Cl)cc2Cl)ccc(Cl)c1S(=O)(=O)O
- T/C [1]: 94 % of control
- T/C [2]: 93 % of control

Compound: CCOC(=O)CC(=O)c1ccccc1SC
- T/C [3]: 98 % of control
- T/C [4]: 96 % of control
- T/C [5]: 96 % of control

Compound: N#C[Se]CC[Se]C#N
- T/C (endpoint: mean survival time, dose: 6.25 mg/kg/injection, schedule: Q01DX001 (ip), vehicle: saline with Tween-80): 94 % of control
- T/C (endpoint: mean survival time, dose: 12.5 mg/kg/injection, schedule: Q01DX001 (ip), vehicle: saline with Tween-80): 98 % of control
- T/C (endpoint: mean survival time, dose: 25.0 mg/kg/injection, schedule: Q01DX001 (ip), vehicle: saline with Tween-80): 103 % of control

Compound: CSc1ccc(OC(=O)Nc2ccc(C)cc2C)cc1C
- T/C (endpoint: mean survival time, dose: 12.5 mg/kg/injection, schedule: Q01DX009 (ip), vehicle: saline with Tween-80): 95 % of control
- T/C (endpoint: mean survival time, dose: 25.0 mg/kg/injection, schedule: Q01DX009 (ip), vehicle: saline with Tween-80): 91 % of control
- T/C [6]: 87 % of control and 89 % of control
- T/C [4]: 93 % of control

Compound: C=CCOc1ccc(C=O)cc1
- T/C [1]: 102 % of control
- T/C [2]: 102 % of control
- T/C (endpoint: mean survival time, dose: 400.0 mg/kg/injection, schedule: Q01DX001 (ip), vehicle: saline): 97 % of control

Compound: CCOC(=O)NS(=O)(=O)Nc1ccccc1
- T/C [3]: 104 % of control
- T/C [4]: 102 % of control
- T/C [5]: 96 % of control

Compound: O=CC(CO)CC(C=O)n1cnc2c(=O)[nH]cnc21 (stereo unspecified)
- T/C (endpoint: mean survival time, dose: 60.0 mg/kg/injection, schedule: Q01DX009 (ip), vehicle: saline): 123 % of control
- T/C (endpoint: mean survival time, dose: 89.0 mg/kg/injection, schedule: Q01DX009 (ip), vehicle: saline): 116 % of control
- T/C (endpoint: mean survival time, dose: 300.0 mg/kg/injection, schedule: Q01DX009 (ip), vehicle: saline): 159 % of control
- T/C (endpoint: mean survival time, dose: 300.0 mg/kg/injection, schedule: Q04DX003 (ip), vehicle: saline): 150 % of control
- T/C (endpoint: median survival time, dose: 37.5 mg/kg/injection, schedule: Q01DX009 (ip), vehicle: saline): 113 % of control and 124 % of control

Compound: NCCOC(=O)/C=C/c1ccccc1
- T/C (endpoint: mean survival time, dose: 100.0 mg/kg/injection, schedule: Q01DX009 (ip), vehicle: saline): 93 % of control
- T/C (endpoint: mean survival time, dose: 200.0 mg/kg/injection, schedule: Q01DX009 (ip), vehicle: saline): 97 % of control

Compound: CC[PH+](CC)CC[S-].CC[PH+](CC)CC[S-].[Au+].[Au+]
- T/C (endpoint: mean survival time, dose: 2.5 mg/kg/injection, schedule: Q01DX009 (ip), vehicle: Klucel (hydroxypropylcellulose) (HPC)): 102 % of control and 107 % of control
- T/C (endpoint: mean survival time, dose: 5.0 mg/kg/injection, schedule: Q01DX009 (ip), vehicle: Klucel (hydroxypropylcellulose) (HPC)): 95 % of control and 106 % of control
- T/C (endpoint: mean survival time, dose: 10.0 mg/kg/injection, schedule: Q01DX009 (ip), vehicle: Klucel (hydroxypropylcellulose) (HPC)): 92 % of control and 109 % of control
- T/C (endpoint: mean survival time, dose: 20.0 mg/kg/injection, schedule: Q01DX009 (ip), vehicle: Klucel (hydroxypropylcellulose) (HPC)): 97 % of control and 109 % of control
- T/C (endpoint: mean survival time, dose: 40.0 mg/kg/injection, schedule: Q01DX009 (ip), vehicle: Klucel (hydroxypropylcellulose) (HPC)): 89 % of control
- T/C (endpoint: mean survival time, dose: 80.0 mg/kg/injection, schedule: Q01DX009 (ip), vehicle: Klucel (hydroxypropylcellulose) (HPC)): 101 % of control

Compound: C=CCCCCCCCCC(=O)NCCN1CCOCC1
- T/C [6]: 100 % of control
- T/C [3]: 96 % of control
- T/C [4]: 88 % of control

Compound: O=C(O)c1nn2c(=O)c3cccc4cccc(c43)c2c1C(=O)O
- T/C (endpoint: mean survival time, dose: 25.0 mg/kg/injection, schedule: Q04DX002 (ip), vehicle: saline with Tween-80): 95 % of control
- T/C (endpoint: mean survival time, dose: 50.0 mg/kg/injection, schedule: Q04DX002 (ip), vehicle: saline with Tween-80): 98 % of control
- T/C (endpoint: mean survival time, dose: 100.0 mg/kg/injection, schedule: Q04DX002 (ip), vehicle: saline with Tween-80): 95 % of control
- T/C (endpoint: mean survival time, dose: 200.0 mg/kg/injection, schedule: Q04DX002 (ip), vehicle: saline with Tween-80): 95 % of control

Compound: CCOC(CC)C(O)(c1ccc(N(C)C)cc1)c1ccc(N(C)C)cc1 (stereo unspecified)
- T/C (endpoint: mean survival time, dose: 100.0 mg/kg/injection, schedule: Q04DX003 (ip), vehicle: saline with Tween-80): 97 % of control
- T/C (endpoint: mean survival time, dose: 200.0 mg/kg/injection, schedule: Q04DX003 (ip), vehicle: saline with Tween-80): 102 % of control
- T/C (endpoint: mean survival time, dose: 400.0 mg/kg/injection, schedule: Q04DX003 (ip), vehicle: saline with Tween-80): 94 % of control

Compound: Cc1ccc(NC(=O)Nc2ccccc2C(N)=O)cc1[N+](=O)[O-]
- T/C [6]: 94 % of control
- T/C [3]: 98 % of control

Compound: O=C1NC(c2ccccc2)C2/C=C\CCCCC12 (stereo unspecified)
- T/C (endpoint: mean survival time, dose: 75.0 mg/kg/injection, schedule: Q04DX002 (ip), vehicle: saline with Tween-80): 93 % of control
- T/C (endpoint: mean survival time, dose: 150.0 mg/kg/injection, schedule: Q04DX002 (ip), vehicle: saline with Tween-80): 96 % of control
- T/C (endpoint: mean survival time, dose: 300.0 mg/kg/injection, schedule: Q04DX002 (ip), vehicle: saline with Tween-80): 93 % of control
